Assay results as given in patent US20160128988A1, “COMBINATIONS FOR THE TREATMENT OF CANCER COMPRISING A MPS-1 KINASE INHIBITOR AND A MITOTIC INHIBITOR” (BAYER PHARMA AKTIENGESELLSCHAFT, priority 2013, published 2016).
Read-outs that look alike come from different tables or passages of the source. Marks after values point to notes of the source that are not given here.

Key:
[1] = tested on: NCI-H1299 human NSCLC xenograft tumors; settings: Compound A1 2 mg/kg 2QD 2on/5off p.o., docetaxel 15 mg/kg QD 1on/6off i.v.; for T/C area: relative mean tumor area, 20 treatment days
Text: The effect of combination treatment of an Mps-1 kinase inhibitor (Compound A1) with docetaxel, another SAC activating, […], anti-mitotic agent, used as standard of care in NSCLC patients, was studied in the NCI-H1299 taxane intrinsically resistant human lung carcinoma (NSCLC) xenograft model in nude mice.
Docetaxel was applied intravenously once per week upon its respective MTD. Substances were formulated in optimal vehicles to achieve solutions. Animal body weight and tumor size were determined two times weekly. […] For combination treatment Compound A1and docetaxel were applied at the same day within a time frame of 4 hours. Animals of control and Mps-1 kinase inhibitor monotherapy group were treated for a duration of 20 days. Animals of docetaxel monotherapy and docetaxel/Mps-1 kinase inhibitor combination treatment groups were treated for a duration of 42 days. At the end of the study after one final treatment plasma and tumors were sampled for PK analysis and final tumor weight was determined.
(§1) NCI-H1299 human NSCLC tumor cells were implanted s.c. into nude mice on day 0. […] Compound A1 was administered orally (p.o.) upon 2.0 mg/kg twice daily (2QD) for 2 days on/5 days off (2 on/5 off) in monotherapy and in combination with docetaxel. Docetaxel was administered intravenously (i.v.) upon 15 mg/kg once daily (QD) once per week (1 on/6 off) in monotherapy and combination therapy. Tumor growth was monitored by determination of the tumor area using calliper measurement two to three times weekly. FIG. 2A: Time course of tumor growth. FIG. 2B: Weight of tumors in docetaxel/Mps-1 kinase inhibitor combination group at the end of the study at day 52 after tumor cell inoculation. FIG. 2C: Time course of animal body weight change during the course of the study.

[2] = Maximum tolerated dose (MTD); type: in vivo, nude mice
A2780cis xenograft model = tested on: A2780cis xenograft model
Protocol: The effect of the combination treatment of Compound A1 with paclitaxel was studied in a human ovarian carcinoma model in nude mice, namely in the adaptive cisplatin-resistant and paclitaxel intrinsically-resistant A2780cis xenograft model. […] Paclitaxel was administered IV QW at its respective MTD.

[3] = tested on: MDA-MB 231 human triple-negative breast cancer xenograft tumors; settings: Compound A1 1 mg/kg 2QD 2on/5off p.o., paclitaxel 20 mg/kg QD 1on/6off i.v.; for T/C area: relative mean tumor area, 28 treatment days
Protocol: The effect of combination treatment of an Mps-1 kinase inhibitor (Compound A1) and paclitaxel was studied in the MDA-MB 231 human triple-negative (no expression of Her2/neu, progesterone receptor, estrogen receptor) xenograft model in nude mice.
(§2) Paclitaxel was applied intravenously once per week upon its respective MTD. Substances were formulated in optimal vehicles to achieve solutions. Animal body weight and tumor size were determined three times weekly. […] For combination treatment, Compound A1 and paclitaxel were applied at the same day within a time frame of 4 hours. Animals of control and monotherapy group (Compound A1 only) were treated for a duration of 28 days. Animals of paclitaxel monotherapy and paclitaxel/Mps-1 kinase inhibitor treatment groups were treated for a duration of 50 days. At the end of the study after one final treatment plasma and tumors were sampled for PK analysis and final tumor weight was determined.
MDA-MB 231 human breast cancer cells were implanted s.c. into nude mice on day 0. […] Compound A1 was administered orally (p.o.) upon 1 mg/kg twice daily (2QD) for 2 days on/5 days off (2 on/5 off) in monotherapy and in combination with paclitaxel. Paclitaxel was administered intravenously (i.v.) upon 20 mg/kg once daily (QD) once per week (1 on/6 off) in monotherapy and combination therapy. Tumor growth was monitored by determination of the tumor area using calliper measurement three times weekly. FIG. 3A: Time course of tumor growth. FIG. 3B: Weight of tumors in paclitaxel/Mps-1 kinase inhibitor combination group at the end of the study at day 73 after tumor cell inoculation. FIG. 3C: Time course of animal body weight change during the course of the study.

[4] = tested on: NCI-H1299 human NSCLC xenograft tumors; settings: Compound A1 0.45 mg/kg 2QD 2on/5off p.o., paclitaxel 20 mg/kg QD 1on/6off i.v.; for T/C area: relative mean tumor area, 28 treatment days
Protocol: The effect of combination treatment of an Mps-1 inhibitor and paclitaxel was studied in the NCI-H1299 taxane intrinsically resistant human lung carcinoma (NSCLC) xenograft model in nude mice.
as §2, with “were determined two to three times” for “were determined three times”, “combination treatment, the Compound A1” for “combination treatment, Compound A1”, “and paclitaxel/Mps-1 inhibitor treatment” for “and paclitaxel/Mps-1 kinase inhibitor treatment”, “duration of 37 days. At” for “duration of 50 days. At”
as §1, with “FIGS. 1A and 1B show the response of NCI-H1299 human NSCLC xenograft tumors to treatment with Compound A1 in combination with paclitaxel. NCI-H1299” for “NCI-H1299”, “0.45” for “2.0”, “paclitaxel. Paclitaxel” for “docetaxel. Docetaxel”, “20” for “15”, “1A:” for “2A:”, “1B:” for “2B: Weight of tumors in docetaxel/Mps-1 kinase inhibitor combination group at the end of the study at day 52 after tumor cell inoculation. FIG. 2C:”

[5] = tested on: MKN1 human gastric carcinoma model; experiment: Combination with paclitaxel in MKN1 human gastric carcinoma model
Protocol: (§3) Compound A1 was administered PO in the 2QD intermittent (2 days on/5 days off) dosing schedule up to the respective MTD in single-agent treatment and at a dose of 40% of the single-agent MTD in combination. Paclitaxel was administered IV QW at its respective MTD. Treatment for all groups started at a tumor size of 27 mm^2, on day 7 after tumor cell inoculation. For combination treatment, Compound A1 and paclitaxel were administered on the same day within a time of 4 hours. Animals of the control and Compound A1 single-agent treatment groups were treated for 40 days. Animals of the paclitaxel single-agent and Compound A1 with paclitaxel combination treatment groups were treated for 78 days.

[6] = tested on: primary human NSCLC xenograft model LU387; experiment: Combination with paclitaxel in primary human NSCLC xenograft model LU387; type: in vivo, nude mice; settings: day 42; paclitaxel 20 mg/kg IV QW for 6 weeks, alone or in combination with Compound A1
Protocol: The effect of Compound A1 and paclitaxel compared with a vehicle was evaluated in the subcutaneous primary human NSCLC xenograft model LU387 on nude mice.

[7] = tested on: MKN1 human gastric carcinoma model; settings: mouse, in vivo
Protocol: as §3

[8] = tested on: IGR-OV1 human ovarian carcinoma model
Protocol: Paclitaxel was administered IV QW at 50% of its respective MTD.

[9] = tested on: cisplatin-resistant ovarian cancer cells A2780cis; experiment: Mode of action: histopathology of A2780cis tumors after treatment
Protocol: To explain in vivo the mode of action of an Mps-1 kinase inhibitor in single-agent treatment and combination treatment with a taxane, female NMRI (Naval Medical Research Institute) nude mice were implanted with cisplatin-resistant ovarian cancer cells A2780cis.
Paclitaxel was administered IV (intravenous(ly)) QW (once per week (meaning the 1 day on/6 days off treatment schedule)) at its MTD (24 mg/kg) in single-agent and combination treatments. […] Tumors were embedded in paraffin, sections were prepared and stained with hematoxylin & eosin for histopathological analysis.

[10] = tested on: human glioblastoma model U87 MG; experiment: Combination with vincristine in human glioblastoma model U87 MG (intracerebral); type: in vivo, nude mice
Protocol: The study was designed to determine the response of this glioblastoma model to the treatment with the investigational Compound A1 and vincristine, both alone at a fixed dose, and vincristine in combination with two different doses, both lower than that of Compound A1 used in the monotherapy schedule. The size of the glioblastoma was used as read out parameter for response.
The cell culture derived human xenograft U87 MG was initiated by transplantation of the tumor cells into the left hemisphere of the mouse brain. Treatment was done in three cycles between day 3 and day 19. Mice were sacrificed at day 24, the brain isolated and shock frozen in 2 methyl-butane. Tumor size were determined as measure for tumor growth inhibition from cryo-slizes after staining.

[11] = after 78 treatment days, paclitaxel 24 mg/kg IV QW
[12] = day 24, single agents: Gr. B Compound A1 2.5 mg/kg p.o., Gr. C Vincristine 0.75 mg/kg i.p.

## CC(=O)O[C@@]12CO[C@@H]1C[C@H](O)[C@@]1(C)C(=O)[C@H](O)C3=C(C)[C@@H](OC(=O)[C@H](O)[C@@H](NC(=O)OC(C)(C)C)c4ccccc4)C[C@@](O)([C@@H](OC(=O)c4ccccc4)[C@H]21)C3(C)C [Docetaxel, 1,7β,10β-trihydroxy-9-oxo-5β,20-epoxytax-11-ene-2α,4,13α-triyl 4-acetate 2-benzoate 13-{(2R,3S)-3-[(tert-butoxycarbonyl)amino]-2-hydroxy-3-phenylpropanoate}, reference compound]
[1]
  Fatal Tox: 0/8
  Max. Body weight loss (%): −2%
  T/C area: 0.16^#
[1]; listed as docetaxel
  T/C area: 0.16
[2]; nude, mouse, in vivo, Compound A1 PO 2QD 2 days on/5 days off, paclitaxel IV QW, docetaxel i.v. 1 day on/6 days off, read-out: MTD (maximum tolerated dose), single-agent
  MTD: 15 mg/kg

## CC(=O)O[C@H]1C(=O)[C@@]2(C)[C@H]([C@H](OC(=O)c3ccccc3)[C@]3(O)C[C@H](OC(=O)[C@H](O)[C@@H](NC(=O)c4ccccc4)c4ccccc4)C(C)=C1C3(C)C)[C@]1(OC(C)=O)CO[C@@H]1C[C@@H]2O [Paclitaxel, (2α,4α,5β,7β,10β,13α)-4,10-bis(acetyloxy)-13-{[(2R, 3S)-3-(benzoylamino)-2-hydroxy-3-phenylpropanoyl]oxy}-1,7-dihydroxy-9-oxo-5,20-epoxytax-11-en-2-yl benzoate, reference compound]
A2780cis xenograft model; 14 treatment days, Compound A1 1 mg/kg PO 2QD 2 days on/5 days off, paclitaxel 24 mg/kg IV QW
  relative T/Carea: 0.09
A2780cis xenograft model; mouse, in vivo
  tolerability (in words): well tolerated without critical body weight loss or toxicities
[3]
  Fatal Tox: 0/10
  T/C area: 0.14^#
[3]; listed as paclitaxel
  T/C area: 0.14
[4]
  Fatal Tox: 0/10
  T/C area: 0.28^#
[4]; listed as paclitaxel
  T/C area: 0.28
[2]; paclitaxel i.v. 1 day on/6 days off, as stated for the NCI-H1299 study
  MTD (maximum tolerated dose), single-agent: 20 mg/kg
[5]; 40 treatment days, paclitaxel 24 mg/kg IV QW, combination with Compound A1 1 mg/kg PO 2QD 2 days on/5 days off
  relative T/Carea: 0.05
[5]; [11]
  partial regression (% of tumors): 20%
  tumor growth delay (% of tumors): 80%
[5]; mouse, in vivo
  anti-tumor efficacy (in words): overall disease stabilization
[5]; paclitaxel group: Treatment Day 57, combination group: after the first treatment cycle
  Fatal toxicity (number of animals): 1
[6]
  mean tumor size: 1494 mm^3
[7]
  tolerability (in words): overall well tolerated without critical body weight loss
[8]; 38 treatment days, Compound A1 single agent 2.5 mg/kg PO 2QD, paclitaxel 12 mg/kg IV QW, combination with Compound A1 2 mg/kg PO 2QD
  relative T/Carea: 0.34
[8]; Compound A1 2.5 mg/kg single agent (38 days), paclitaxel 12 mg/kg and combination with Compound A1 2 mg/kg (treatment day 38 to 59)
  anti-tumor efficacy (in words): clear tumor progression
[8]; mouse, in vivo
  tolerability (in words): well tolerated without critical body weight loss or toxicities
[9]; paclitaxel 24 mg/kg IV QW single agent, 4 and 8 hours after treatment
  histopathological phenotype of tumor tissue: induced atypical mitoses
[9]; paclitaxel 24 mg/kg IV QW single agent, 28, 32 and 48 hours after treatment
  histopathological phenotype of tumor tissue: increased necrosis and apoptosis

## CC[C@]1(O)C[C@H]2CN(CCc3c([nH]c4ccccc34)[C@@](C(=O)OC)(c3cc4c(cc3OC)N(C=O)[C@H]3[C@@](O)(C(=O)OC)[C@H](OC(C)=O)[C@]5(CC)C=CCN6CC[C@]43[C@@H]65)C2)C1 [Vincristine, vincristine, reference compound]
[10]; Gr. C vincristine alone, Gr. D combination of high dose Compound A1 and vincristine
  inhibition of tumor growth: 38.6%
[10]; day 24, single agents: Gr. B Compound A1 2.5 mg/kg p.o. BIDx2x3, Gr. C Vincristine 0.75 mg/kg i.p. 1xqWx3
  Brain tumor inside [mm^2]: 10.69 +/− 6.71 mm^2
[10]; [12]
  Brain tumor outside [mm^2]: 4.50 +/− 1.66 mm^2
  Brain tumor total [mm^2]: 13.26 +/− 7.25 mm^2
  T/C (inside T) [%]: 61.4%
